The text below walks through data of patent US7951788B2, “Method of treating cancer and other conditions or disease states using L-cytosine nucleoside analogs” (Yale University, priority 2005, dated 2011).

The subject of one experiment is colon 38. The experiment can be described thus: Experiment 2: enhancement of the anti-cancer effect of oxaliplatin on colon 38 growth in mice. In kind it is in vivo, C57BL6 female mice. The following applies: combination with oxaliplatin 10 mg/kg i.p. once on day 1, FIG. 2; for enhancement of the anti-tumor effect of oxaliplatin on colon 38: nucleoside p.o. b.i.d. days 1-5 (3TC, FTC 100 mg/kg; LFd4C 15 mg/kg per legend); for duration of the enhancing effect with oxaliplatin: nucleoside p.o. b.i.d. days 1-5. The procedure:
(§1) In general, the following protocol was used to implant mice with tumor cell lines and to test drugs for the anti-cancer effect.
(§2) This tumor is passed from a solid tumor growing in mice. Several grams (assuming a gram per ml) are pressed through a sterile screen and suspended in a tissue culture media without phenol red or fetal calf serum (a balanced salt solution) at 2 ml/gram of tumor. Then 0.1 ml of this tumor suspension is implanted into the flank of the mouse. Ten days to two weeks after implantation (when the tumors could be measured with a caliper), unless otherwise indicated, the drug therapy was initiated.
(§3) In general, drugs are delivered according to the following schedule. Every day the mice are weighed to deter the amount to be injected and as an index of toxicity.
(§4) The Tumor Volume is calculated from the measurements by the formula: length (mm)×width (mm)×width (mm)×Π/6 as a % of Day 1.
Experiment 2 tested the effects of 3TC, FTC and LFD4C (same schedule as above) on the enhancement of anti-cancer drug effect of oxaliplatin (10 mg/kg i.p., once on day 1) on colon 38 growth in C57BL6 female mice. […].
In FIG. 2, the following legend applies:
3TC and FTC (100 mg/kg) p.o.b.i.d. day 1-5;
LFd4C (15 mg/kg) p.o.b.i.d. days 1-5;
Oxaplatin (10 mg/kg) i.p. once on day 1;
Combination groups received both treatments as described above.

In the next experiment the test system is colon 38 mouse tumor. Kind of experiment: Experiment 1: growth of colon 38 tumor implanted in the flank of mice, drugs alone and combined with 5-FU/leucovorin. The experiment is classed as in vivo. As to conditions: FIG. 1; for effect on the anti-cancer activity of 5-FU/LV: combination with 5FU/LV 150 mg/kg each i.p. once on day one, nucleoside p.o. b.i.d. for 5 days (3TC, FTC 100 mg/kg; LFD4C 20 mg/kg); for growth of colon 38 mouse tumor (tumor volume as % of Day 1): drug alone; for growth of colon 38 mouse tumor (tumor volume as % of Day 1) / duration of the effect on colon 38 tumor growth: immunocompetent mice, p.o. b.i.d. for 5 days, 3TC and FTC 100 mg/kg, LFD4C 20 mg/kg. The procedure:
as §1, §2, §3, §4
This experiment was designed to determine the effect of 3TC, FTC or LFD4C alone and in combination with 5-Fluorouracil with leucovorin rescue on the growth of mouse tumor (colon 38) in immuno-competent mice. The drugs were administered to the mice according to the following schedule:
5FU/LV—150 mg/kg each i.p. once on day one
3TC—100 mg/kg p.o. b.i.d. for 5 days
FTC—100 mg/kg p.o. bid for 5 days
LFD4C—20 mg/kg p.o. b.i.d. for 5 days
Combination groups received both treatments as per above schedules.
In FIG. 1, the following legend applies:
3TC (100 mg/kg) p.o.b.i.d.×5 days;
FTC (100 mg/kg) p.o.b.i.d.×5 days;
LFd4C (20 mg/kg) p.o.b.i.d.×5 days;
Combination groups received both treatments as per above.

As to `Nc1nc(=O)n([C@@H]2CS[C@H](CO)O2)cc1F` [FTC, emtricitabine], in the experiment with colon 38, the “enhancement of the anti-tumor effect of oxaliplatin on colon 38” value is recorded as “clearly enhanced” and the “duration of the enhancing effect with oxaliplatin” value is “lasts well after the treatment is stopped”. Moreover, in the experiment with colon 38 mouse tumor, the “effect on the anti-cancer activity of 5-FU/LV” value is given as “significant (additive or synergistic)”, the “growth of colon 38 mouse tumor (tumor volume as % of Day 1)” value is “slows down the growth” and the “duration of the effect on colon 38 tumor growth” value is “lasted well past the 5 day therapy”.
The corresponding values for `Nc1nc(=O)n([C@@H]2C=C[C@H](CO)O2)cc1F` [LFD4C, Elvucitabine] are “clearly enhanced”, “lasts well after the treatment is stopped”, “significant (additive or synergistic)”, “slows down the growth” and “lasted well past the 5 day therapy”.
